Key:
[1] = molecular target: CYP2C19 (Homo sapiens, UniProt P33261); assay: in vitro; conditions: both, pooled cryopreserved human hepatocytes in suspension, probe S-mephenytoin (20 μM)
[2] = molecular target: T1, CYP2C9 (Homo sapiens, UniProt P11712); conditions: Sulfaphenazole 10 μM
[3] = molecular target: T1, CYP2C9; assay: in vitro; conditions: both, hepatocytes
[4] = molecular target: CYP2A6 (Homo sapiens, UniProt P11509); conditions: Tranylcypromine 3 μM
[5] = molecular target: CYP1A2 (Homo sapiens, UniProt P05177); assay: in vitro; conditions: both, hepatocytes
Description: CYP1A2 activity was characterized by the formation of acetaminophen from phenacetin.

T1 sequence (P11712 whole entry): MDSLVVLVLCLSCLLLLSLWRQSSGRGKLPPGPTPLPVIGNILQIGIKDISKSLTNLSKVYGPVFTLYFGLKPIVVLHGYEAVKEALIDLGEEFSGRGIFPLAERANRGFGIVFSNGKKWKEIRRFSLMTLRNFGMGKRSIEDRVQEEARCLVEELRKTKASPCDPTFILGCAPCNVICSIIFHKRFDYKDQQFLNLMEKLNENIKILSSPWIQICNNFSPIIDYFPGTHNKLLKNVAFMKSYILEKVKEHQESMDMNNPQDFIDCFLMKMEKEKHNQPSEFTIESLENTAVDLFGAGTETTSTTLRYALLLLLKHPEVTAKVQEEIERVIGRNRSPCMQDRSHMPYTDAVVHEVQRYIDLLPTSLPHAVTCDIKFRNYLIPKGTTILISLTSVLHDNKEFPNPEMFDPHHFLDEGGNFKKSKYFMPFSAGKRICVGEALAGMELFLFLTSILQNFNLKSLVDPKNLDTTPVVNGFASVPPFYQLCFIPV
CYP1A2, sequence (P05177 whole entry): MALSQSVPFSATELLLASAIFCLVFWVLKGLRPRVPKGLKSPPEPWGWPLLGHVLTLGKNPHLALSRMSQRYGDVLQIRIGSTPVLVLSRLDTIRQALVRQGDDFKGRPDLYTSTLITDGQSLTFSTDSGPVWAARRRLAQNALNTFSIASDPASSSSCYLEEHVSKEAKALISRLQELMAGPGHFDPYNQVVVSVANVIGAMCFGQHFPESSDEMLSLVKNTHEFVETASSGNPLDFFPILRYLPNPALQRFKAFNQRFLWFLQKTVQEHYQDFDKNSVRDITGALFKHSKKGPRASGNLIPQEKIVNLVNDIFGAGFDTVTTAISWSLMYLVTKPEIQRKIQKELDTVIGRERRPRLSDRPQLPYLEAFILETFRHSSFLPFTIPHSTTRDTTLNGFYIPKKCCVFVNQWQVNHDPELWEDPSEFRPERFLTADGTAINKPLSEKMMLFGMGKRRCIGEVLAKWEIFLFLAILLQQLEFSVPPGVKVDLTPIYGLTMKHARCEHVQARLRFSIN
CYP2A6, sequence (P11509 whole entry): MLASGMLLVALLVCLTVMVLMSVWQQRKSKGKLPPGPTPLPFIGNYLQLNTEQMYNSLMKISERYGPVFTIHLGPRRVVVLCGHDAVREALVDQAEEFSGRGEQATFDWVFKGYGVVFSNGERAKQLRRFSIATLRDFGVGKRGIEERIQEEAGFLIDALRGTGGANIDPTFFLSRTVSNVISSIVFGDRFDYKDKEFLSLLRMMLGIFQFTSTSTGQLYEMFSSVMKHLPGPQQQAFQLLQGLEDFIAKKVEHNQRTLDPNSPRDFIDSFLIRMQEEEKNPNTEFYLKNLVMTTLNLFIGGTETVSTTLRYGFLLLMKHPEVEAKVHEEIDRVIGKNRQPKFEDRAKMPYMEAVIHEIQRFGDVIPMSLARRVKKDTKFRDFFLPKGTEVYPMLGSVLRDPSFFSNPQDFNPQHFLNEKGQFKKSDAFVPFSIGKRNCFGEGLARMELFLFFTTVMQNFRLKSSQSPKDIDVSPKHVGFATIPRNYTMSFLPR
CYP2C19, sequence (P33261 whole entry): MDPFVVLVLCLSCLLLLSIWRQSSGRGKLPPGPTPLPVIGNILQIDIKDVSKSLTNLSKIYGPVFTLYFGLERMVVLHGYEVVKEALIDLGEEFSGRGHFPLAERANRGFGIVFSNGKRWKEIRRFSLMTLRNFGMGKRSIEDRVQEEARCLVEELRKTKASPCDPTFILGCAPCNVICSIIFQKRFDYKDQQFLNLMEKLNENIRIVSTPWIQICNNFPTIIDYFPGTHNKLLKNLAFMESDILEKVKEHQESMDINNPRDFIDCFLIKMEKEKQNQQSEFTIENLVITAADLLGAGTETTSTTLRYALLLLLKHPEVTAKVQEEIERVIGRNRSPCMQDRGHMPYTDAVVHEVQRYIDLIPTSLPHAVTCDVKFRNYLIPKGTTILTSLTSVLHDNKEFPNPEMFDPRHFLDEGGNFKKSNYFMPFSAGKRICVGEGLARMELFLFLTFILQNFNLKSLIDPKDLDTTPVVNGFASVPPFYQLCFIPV

For `COc1ccc2[nH]c([S+]([O-])Cc3ncc(C)c(OC)c3C)nc2c1` (centres unmarked) [Omeprazole, omeprazole], the activity at 60 min, 25 μM [1] was 73.6% and the inhibition at 60 min, 25 μM [1] was 26.4%.
`Nc1ccc(S(=O)(=O)Nc2ccnn2-c2ccccc2)cc1` [Sulfaphenazole, sulfaphenazole] was tested, and the “CYP2C9 % Inhibition” value [2] was 95.0% and the activity at 60 min, 10 μM [3] was 5.02%.
For `N[C@@H]1C[C@H]1c1ccccc1` (racemic) [Tranylcypromine, tranylcypromine], the “CYP2A6 % Inhibition” value [4] was 64.1% and the “CYP2A6 activity % VC” value [4] was 35.9%.
In the case of `Cc1nc2c([nH]1)c(=O)n(C)c(=O)n2Cc1ccco1` [Furafylline, furafylline], the activity at 60 min, 1 μM [5] is reported as 27.9% and the inhibition at 60 min, 1 μM [5] is reported as 72.1%.

Reference: patent US7097865B2, “Inhibition of CYP450 1A2, 2A6, 2C9, 2C19, 2D6, 2E1, and 3A4 in cryopreserved human hepatocytes by a Tripterygium Wilfordii Hook. F. extract” (Novemed Group Limited, priority 2002, dated 2006)
